# Assay results from the RepoRT retention time repository.
# Assay: A: acetonitrile + 0.1% formic acid + 10 mM ammonium formate; B: 5% water + 95% acetonitrile + 0.1% formic acid + 10 mM ammonium formate; gradient (min/%B) 0/10 2/10 22/100 27/100 27.1/10
# Conditions: stereoisomer not certain
row,LC retention time [min],SMILES
1,0.421,CCC=CCC1C(=O)CCC1CC(=O)OC (mixture of isomers) [Methyl Jasmonate (mixture of isomers)]
2,4.49,COc1ccc2[nH]cc(CC(N)C(=O)O)c2c1 (racemic) [5-Methoxy-DL-tryptophan]
3,2.67,CCN1CCCC1CNC(=O)c1cc(S(N)(=O)=O)ccc1OC (racemic) [(+/-)-Sulpiride]
4,0.968,O=C(O)C(O)Cc1c[nH]c2ccccc12 (racemic) [DL-Indole-3-lactic acid]
5,5.38,NC(Cc1cccc(O)c1)C(=O)O (racemic) [DL-m-Tyrosine]
6,1.32,CC(=O)NC(Cc1c[nH]c2ccccc12)C(=O)O (racemic) [N-Acetyl-DL-Tryptophan]
7,0.729,"O=c1[nH]c(=O)n(C2CC(O)C(CO)O2)cc1I (single isomer, unassigned; (+)) [(+)-5-Iodo-2'-deoxyuridine]"
8,0.417,"C=C(C)C1CCC2=CC(=O)CC(C)C2(C)C1 (single isomer, unassigned; (+)) [(+)-Nootkatone]"
9,0.438,"CC1=CCC2CC1C2(C)C (single isomer, unassigned; (-)) [(-)-alpha-Pinene]"
10,0.655,"Cn1c(=O)[nH]c2ncn(C)c2c1=O [1,7-dimethylxanthine]"
11,0.425,c1coc(Cn2cccc2)c1 [1-Furfurylpyrrole]
12,4.68,C[n+]1cccc(C(=N)[O-])c1 [1-Methylnicotinamide]
13,3.32,Cn1c(=O)[nH]c2[nH]c(=O)[nH]c2c1=O [1-Methyluric acid]
14,1.39,Nc1ncnc2c1ncn2C1CC(O)C(CO)O1 (centres undefined) [2'-Deoxyadenosine]
15,3.51,Nc1ccn(C2CC(O)C(CO)O2)c(=O)n1 (centres undefined) [2'-Deoxycytidine]
16,7.1,Nc1nc2c(ncn2C2CC(O)C(COP(=O)(O)O)O2)c(=O)[nH]1 (centres undefined) [2'-Deoxyguanosine 5'-monophosphate]
17,4.06,Nc1nc2c(ncn2C2CC(O)C(CO)O2)c(=O)[nH]1 (centres undefined) [2'-Deoxyguanosine]
18,1.23,O=c1ccn(C2CC(O)C(CO)O2)c(=O)[nH]1 (centres undefined) [2'-Deoxyuridine]

row,LC retention time [min],SMILES
1,0.451,"CC1=CC(=O)C(C)O1 (centres undefined) [2,5-Dimethyl-2,3-dihydrofuran-3-one]"
2,0.628,"COc1cccc(OC)c1C(=O)O [2,6-Dimethoxybenzoic acid]"
3,0.586,CCc1occc(=O)c1O [2-Ethyl-3-hydroxy-4H-pyran-4-one]
4,1.14,O=C(O)CNC(=O)c1ccccc1O [2-Hydroxy Hippuric Acid]
5,3.28,Cc1ccccc1C(=O)NCC(=O)O [2-Methylhippuric acid]
6,3.08,O=C(O)c1ccccn1 [2-Picolinic acid]
7,3.64,O=C(O)CNC(=O)c1ccc(O)cc1 [2-[(4-Hydroxyphenyl)formamido]acetic acid]
8,3.5,"NC(Cc1cc(I)c(Oc2ccc(O)c(I)c2)c(I)c1)C(=O)O (stereo not drawn) [3,3',5-Triiodo-l-thyronine]"
9,0.571,"O=Cc1ccc(O)c(O)c1 [3,4-Dihydroxybenzaldehyde]"
10,0.554,"COc1ccc(CC(=O)O)cc1OC [3,4-Dimethoxyphenylacetic acid]"
11,3.63,"N[C@@H](Cc1cc(I)c(Oc2ccc(O)cc2)c(I)c1)C(=O)O [3,5-Diiodo-L-Thyronine]"
12,0.613,Cc1occc(=O)c1O [3-Hydroxy-2-methyl-4-pyrone]
13,0.467,O=C(O)CCc1c[nH]c2ccccc12 [3-Indolepropionic acid]
14,7.74,Cn1cncc1C[C@H](N)C(=O)O [3-Methyl-L-histidine]
15,0.412,Cc1c[nH]c2ccccc12 [3-Methylindole]
16,1.15,Cn1c(=O)[nH]c(=O)c2[nH]cnc21 [3-Methylxanthine]
17,4.76,N[C@@H](Cc1ccc(O)c([N+](=O)[O-])c1)C(=O)O [3-Nitro-L- tyrosine]

# Continued, compound first:
row,SMILES,LC retention time [min]
1,CC(C)NCC(O)COc1cccc2ccccc12 (racemic) [(+/-)-Propranolol],1.21
2,COc1ccc(CCN(C)CCCC(C#N)(c2ccc(OC)c(OC)c2)C(C)C)cc1OC (racemic) [(+/-)-Verapamil],0.815
3,"NCC(N)C(=O)O (racemic) [DL-2,3-Diaminopropionic acid]",7.79
4,NCC(O)CCC(N)C(=O)O (racemic) [DL-5-Hydroxylysine],7.93
5,"NC(=O)CCCCC1CCSS1 (racemic) [DL-6,8-Thioctamide]",0.473
6,NC(CCS)C(=O)O (racemic) [DL-Homocysteine],5.69
7,CC(C)C(N)CC(=O)O (racemic) [DL-beta-Leucine],5.29
8,CC(=O)NC(CO)C(=O)O (racemic) [N-Acetyl-DL-serine],5.82
9,"CC(C)CCCC(C)C1CCC2C3CCC4=CC(=O)CCC4(C)C3CCC12C (single isomer, unassigned; (+)) [(+)-4-Cholesten-3-one]",0.407
10,"CC(C)(CO)C(O)C(=O)NCCC(=O)O (single isomer, unassigned; (+)) [(+)-Pantothenic acid]",2.17
11,"CC(C)=CCCC(C)CC=O (single isomer, unassigned; (-)) [(-)-Citronellal]",0.405
12,"CCCCCCCCCCCCCC(=O)OCC(COP(=O)(O)OCCN)OC(=O)CCCCCCCCCCCCC (centres undefined) [1,2-Dimyristoyl-sn-glycero-3-phosphoethanolamine]",2.44
13,"CCCCCCCCCCCCCCCC(=O)OCC(COP(=O)(O)O)OC(=O)CCCCCCCCCCCCCCC (centres undefined) [1,2-Dipalmitoyl-sn-glycero-3-phosphate]",2.45
14,"COc1cc(OC)cc(OC)c1 [1,3,5-Trimethoxybenzene]",0.423
15,"O=C(O)CCCCCCCCCCCC(=O)O [1,11-Undecanedicarboxylic acid]",0.554
16,NC12CC3CC(CC(C3)C1)C2 [1-Aminoadamantane],2.36
17,NC1(C(=O)O)CC1 [1-Aminocyclopropanecarboxylic acid],6.03
18,"NC(CCCC(N)C(=O)O)C(=O)O (centres undefined) [2,6-Diaminopimelic Acid]",8.06
19,CC(=O)c1cnccn1 [2-Acetylpyrazine],0.441
20,NCC(O)c1ccccc1 (centres undefined) [2-Amino-1-phenylethanol],2.92
21,CC(C)(N)C(=O)O [2-Aminoisobutyric acid],5.89
22,CCCCCCC(N)C(=O)O (centres undefined) [2-Aminooctanoic acid],4.11
23,COc1ccccc1C=CC=O [2-Methoxycinnamaldehyde],0.436
24,CCC(C)C(=O)NCC(=O)O (centres undefined) [2-Methylbutyrylglycine],1.55
25,"COc1cc(C=CC(=O)O)cc(OC)c1OC [3,4,5-Trimethoxycinnamic acid]",0.47
26,"COc1cc(O)cc(OC)c1 [3,5-Dimethoxyphenol]",0.433
27,CC(CN)C(=O)O (centres undefined) [3-Aminoisobutanoic acid],5.88
28,COc1cc(CCN)ccc1O [3-Methoxytyramine],2.92
29,Cn1cnc(=N)c2[nH]cnc21 [3-Methyladenine],2.75
